In patent US6528517B1, “Synthesis of quinobenzoxazine analogues with topoisomerase II and quadruplex interactions for use as antineoplastic agents” (Board of Regents, The University of Texas System, priority 1998, dated 2003):
Entries after “also recorded” stand apart in the source; their conditions may differ.

Columns and labels:
human topoisomerase II = target: T1, human topoisomerase II (Homo sapiens, UniProt P11388); assay: Decatenation assay (catenated to decatenated KDNA); format: biochemical; conditions: drug concentration that inhibits 50% of conversion of catenated to decatenated KDNA; read-out: topoisomerase II inhibition IC50
T1 construct: purchased TopoGEN, Inc
Description: Kinetoplast DNA (KDNA), human topoisomerase II (170 KDa form), and DNA Unwinding Kit including supercoiled pHOT1 DNA, relaxed DNA marker, buffers, and human topoisomerase I were purchased from TopoGEN, Inc. Agarose was purchased from Fisher. Quinobenzoxazine A-62176 (S-enantiomer) was provided by Abbott Laboratories or prepared by published procedure (Chu and Maleczka, Jr., 1987).
0.25 μg of KDNA was incubated with various concentrations of the quinobenzoxazines in a 20-μl reaction mixture containing 50 mM Tris-HCl (pH 8), 120 mM KCl, 10 mM MgCl2, and 0.5 mM each of ATP, dithiothreitol, and […] BSA for 10 min. Two units of human topoisomerase II (170 KDa form) were added to the mixture, which was then incubated at 37° C. for 30 min. The reaction was terminated with 0.1 volume of stop buffer (5% sarkosyl, 0.025% bromophenol blue, and 50% glycerol). The decatenation products were analyzed on 1% agarose gels run with 0.5 μg/ml ethidium bromide. The gels were scanned by FluoroImager and analyzed by ImageQuaNT software (Molecular Dynamics).

supercoiled pHOT1 DNA = assay: DNA unwinding assay; format: biochemical; conditions: concentration shifting topoisomers to the middle position between relaxed and supercoiled bands
Description: A 22 μl mixture of 0.25 μg of supercoiled pHOT1 DNA, 5 units of topoisomerase I in topoisomerase I buffer (provided with the kit) was incubated at 37° C. for 30 min. Two μl of various concentrations of drug was added, and the incubation was continued for another 30 min. The reactions were terminated by addition of SDS to 1%. Proteinase K was added to the reaction mixtures to ca. 50 μg/ml, and the reaction mixtures were incubated for 15-20 min at 56° C. After adding 0.1 volume of 10×gel loading buffer, the reaction mixtures were extracted with an equal volume of CIA (Chloroform:isoamyl Alcohol; 24:1). The samples were loaded on an 1% agarous gel that was cast in TPE buffer (36 mM Tris-HCl, pH 7.8, 1 mM EDTA, 30 mM NaH2PO4) and 0.2 μg/ml Chloroquine. The gel was run in TPE buffer at room temperature at 10 volts for 20 h, destained in water for 15 min, stained in 0.05 μg/ml ethidium bromide for 15 min, and destained again in water for 15 min. The gel was then photographed, scanned by FluoroImager, and analyzed by ImageQuaNT software (Molecular Dynamics).

B16 melanoma = assay: Cancer cell growth inhibition assay (MTT); format: cell-based, murine
Description: (§1) Exponentially growing cells in 0.1 ml medium were seeded on Day 0 in 96-well microtiter plates. On Day 1, 0.1-ml aliquots of medium containing graded concentrations test agent were added in duplicate to the cell plates. After incubation at 37° C. in a humidified incubator, the plates were centrifuged briefly (1-2 min at 1000 rpm), and 100 μl of the growth medium was removed. Cell cultures were incubated with 50 μl of 3-(4,5-dimethylthiazyl-2-yl)-2,5-diphenyltetrazolium bromide MTT, 1 mg/ml in Dubecco's PBS for 4 h at 37° C. The resulting purple formazan precipitate was solubilized with 200 μl of 0.4 N HCl in isopropyl alcohol. Absorbance was quantitated using a Bio-Rad Model 3550 microplate reader at a test wavelength of 570 nm and a reference wavelength of 630 nm. Absorbance values were transferred to a 486 personal computer, and the IC50 values were determined using the computer program EZ-ED50 (Chen et al., 1993).

DU-145 prostate = assay: Cancer cell growth inhibition assay (MTT); format: cell-based, human
Description: as §1

H226 non-small-cell lung = assay: Cancer cell growth inhibition assay (MTT); format: cell-based, human
Description: as §1

HT-29 colon = assay: Cancer cell growth inhibition assay (MTT); format: cell-based, human
Description: as §1

MDA-231 breast = assay: Cancer cell growth inhibition assay (MTT); format: cell-based, human
Description: as §1

Raji lymphoma = assay: Cancer cell growth inhibition assay (MTT); format: cell-based, human
Description: as §1

[1] = test system: G-quadruplex structure formed on the HT4 template; assay: DNA synthesis arrest assay (Taq polymerase primer extension); format: biochemical; conditions: 55° C.
Description: FIG. 12A and FIG. 12B. Compound 2b (see FIG. 3) concentration-dependent block of Taq polymerase DNA synthesis by the G-quadruplex structure formed on the HT4 template at 55° C. (A) Autoradiogram of a sequencing gel showing enhanced DNA synthesis pausing at the G-quadruplex site with increasing concentrations of 2b. Arrows indicate the positions of the full length product of DNA synthesis, the G-quadruplex pausing site, and the free primer. (B) Quantitation of the gel using ImageQuaNT software.
This assay is similar to that described by Han and co-workers (Han et al., 1999). Briefly, primers (24 nM) labeled with [γ-^32P] were mixed with template DNA (12 nM)) in a Tris-HCl buffer (10 mM Tris, pH 8.0) containing K^+ (50 mM for the HT4 template) and denatured by heating at 90° C. for 5 min. After cooling down to room temperature, 2b was added at various concentrations and incubated at room temperature for 15 min. The primer extension reactions were initiated by adding dNTP (final concentration 100 μM), MgCl2 (final concentration […]), and Taq DNA polymerase (2.5 U/reaction, Boehringer Mannheim). The products were separated on a 12% polyacrylamide sequencing gel. The gels were then dried and visualized on a PhosphorImager (Molecular Dynamics model 445 S1). […]

human telomerase = assay: Telomerase inhibition assay (HeLa cell extract); format: biochemical
Description: The assay used crude HeLa cell extract as the source of human telomerase. It measures the incorporation of ^32P-labeled dGTP into the primer extension of human telomere synthesis (Sun et al., 1998). […] Specific examples of such dual-acting compounds include compounds 2b and 2a (FIG. 3).
The assay was performed by using 5′-end biotinylated d[TTAGGG]3 as the telomere primer. Reaction mixtures (20 μl) containing 5 μl cell lysate (S-100), 50 mM Tris-OAc (pH 8.5), 50 mM K-OAc, 1 mM MgCl2, 5 mM BME, 1 mM spermidine, 1 μM telomere primer, 1.5 μM [α-^32P]-dGTP (800 Ci/mmol), 1 mM dATP, and 1 mM dTTP were incubated at 37° C. for 1 hr, and the reactions were terminated by adding 20 μl of […] streptavidin-coated Dynabeads suspension containing 10 mM Tris-HCl (pH 7.5), 1 mM EDTA, 2M KCl, and a 500 cpm biotinylated internal control. Streptavidin-coated Dynabeads bind selectively to the desired target (5′-biotinylated primer), forming a magnetic bead-targeted complex. The complex was separated from the suspension using a Dynal MPC magnet and washed several times with 2×SSC buffer containing 0.1% SDS to eliminate [α-^32P]-dGTP background. Telomerase reaction products were separated from the magnetic beads by protein denaturation with 5.7 M guanidine-HCl at 90° C. for 30 min. After ethanol precipitation, products were resolved on denaturating 10% polyacrylamide gel.

sea urchin embryo system = assay: Sea urchin embryo system
[2] = test system: prostate cell line DU-145; assay: Cytotoxicity of III in combination with Norfloxacin; format: cell-based; conditions: given alone
Description: FIG. 11. Effect of increasing concentrations of Norfloxacin on the cytotoxic effect of QQ58, compound III in FIG. 2 in the prostate cell line DU-145. Compound III was either given alone (●) or in combination with Norfloxacin at concentrations of 2.58 (♦), 19.37 (♦), or 87.33 (▪) μg/ml. For additions of 2.58 and 19.37 μ/ml of Norfloxacin, the IC50 of compound III was increased by approximately 14- and 20-fold.
as §1, with “The resulting purple formazan precipitate was solubilized with 200 μl of 0.4 N HCl in isopropyl alcohol.” left out
In separate studies, the IC50 of III and the IC10, IC20, and IC50 of Norfloxacin were determined for DU-145, a prostate cell line.

topo II-DNA complex [3] = target: T2, topo II-DNA complex (Drosophila melanogaster, UniProt P15348); assay: Psorospermin competition study (DNA strand breakage assay); format: biochemical; conditions: 0.5-10 μM drug, psorospermin, topo II present
T2 construct: purchased Amersham
T2 sequence (P15348 1-1447): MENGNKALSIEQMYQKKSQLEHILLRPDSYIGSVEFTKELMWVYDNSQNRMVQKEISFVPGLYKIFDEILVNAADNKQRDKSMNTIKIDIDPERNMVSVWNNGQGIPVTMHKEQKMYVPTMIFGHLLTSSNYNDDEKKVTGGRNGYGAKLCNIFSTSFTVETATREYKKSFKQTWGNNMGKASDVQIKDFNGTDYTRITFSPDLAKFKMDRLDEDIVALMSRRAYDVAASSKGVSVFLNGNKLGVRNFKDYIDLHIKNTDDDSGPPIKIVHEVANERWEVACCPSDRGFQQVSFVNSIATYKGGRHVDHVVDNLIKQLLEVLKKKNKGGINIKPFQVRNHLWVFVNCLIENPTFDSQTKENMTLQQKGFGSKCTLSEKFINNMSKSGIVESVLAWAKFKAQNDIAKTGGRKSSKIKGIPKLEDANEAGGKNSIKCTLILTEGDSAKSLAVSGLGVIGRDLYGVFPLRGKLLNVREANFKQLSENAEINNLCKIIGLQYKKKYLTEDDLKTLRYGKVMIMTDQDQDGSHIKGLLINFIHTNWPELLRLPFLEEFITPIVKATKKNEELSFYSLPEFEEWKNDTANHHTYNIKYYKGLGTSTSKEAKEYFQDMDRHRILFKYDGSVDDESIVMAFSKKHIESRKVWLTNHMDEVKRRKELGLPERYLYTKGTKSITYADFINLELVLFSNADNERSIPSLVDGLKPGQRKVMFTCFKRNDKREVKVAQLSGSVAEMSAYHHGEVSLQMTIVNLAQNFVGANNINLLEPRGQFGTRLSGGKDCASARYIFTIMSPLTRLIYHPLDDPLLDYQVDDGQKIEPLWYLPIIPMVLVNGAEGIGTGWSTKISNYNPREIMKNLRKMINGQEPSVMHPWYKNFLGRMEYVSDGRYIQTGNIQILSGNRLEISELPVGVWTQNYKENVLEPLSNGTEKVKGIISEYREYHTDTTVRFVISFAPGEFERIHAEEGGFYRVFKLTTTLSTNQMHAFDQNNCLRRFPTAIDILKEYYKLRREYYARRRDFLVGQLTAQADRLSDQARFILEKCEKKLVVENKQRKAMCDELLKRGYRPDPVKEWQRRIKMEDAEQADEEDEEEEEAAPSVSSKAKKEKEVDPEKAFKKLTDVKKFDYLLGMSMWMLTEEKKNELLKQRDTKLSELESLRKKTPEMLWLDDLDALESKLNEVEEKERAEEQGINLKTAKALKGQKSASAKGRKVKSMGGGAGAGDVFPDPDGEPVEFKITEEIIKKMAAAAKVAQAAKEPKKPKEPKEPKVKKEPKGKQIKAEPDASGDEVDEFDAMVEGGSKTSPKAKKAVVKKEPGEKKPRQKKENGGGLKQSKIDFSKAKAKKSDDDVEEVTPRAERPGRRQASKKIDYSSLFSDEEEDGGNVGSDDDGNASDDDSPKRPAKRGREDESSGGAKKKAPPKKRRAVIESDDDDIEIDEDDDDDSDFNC
Description: 5′^32P-labeled DNA was incubated with Drosophila topo II in the same buffer as the one in the topo II cleavage reaction in the presence of various amounts of either A-62176, Norfloxacin, or both. The incubation reactions took place at 30° C. for 10 min before 10 μM (final concentration) of psorospermin was added to the mixtures. The reactions were continued for an additional 5 min and then terminated by adding 5 μg of calf thymus DNA, followed by heating at 95° C. for 15 min. In the presence of piperidine, this procedure induces strand breakage at the drug modification sites (Hansen et al., 1996). The samples were subjected to phenol/chloroform extraction followed by ethanol precipitation.
In the presence of topo II, the reactivity of psorospermin is enhanced more than 40-fold with the guanine at the +4′ position at site B in FIG. 7 (Kwok et al., 1998a and 1998b). A DNA strand breakage assay was used to locate the position of alkylation of DNA by the epoxide of psorospermin upon intercalation to the base pairs between the +1 and +2 positions at site B within the topo II-DNA complex (Kwok et al., 1998a). Psorospermin has subsequently been used to probe the binding sites for m-AMSA (Kwok et al., 1998a). In the present study, this same assay was performed to determine the binding site of A-62176 on DNA in the presence of topo II.

topo II-DNA complex [4] = target: T2, topo II-DNA complex; conditions: cited from earlier work

T1 sequence (P11388 whole entry): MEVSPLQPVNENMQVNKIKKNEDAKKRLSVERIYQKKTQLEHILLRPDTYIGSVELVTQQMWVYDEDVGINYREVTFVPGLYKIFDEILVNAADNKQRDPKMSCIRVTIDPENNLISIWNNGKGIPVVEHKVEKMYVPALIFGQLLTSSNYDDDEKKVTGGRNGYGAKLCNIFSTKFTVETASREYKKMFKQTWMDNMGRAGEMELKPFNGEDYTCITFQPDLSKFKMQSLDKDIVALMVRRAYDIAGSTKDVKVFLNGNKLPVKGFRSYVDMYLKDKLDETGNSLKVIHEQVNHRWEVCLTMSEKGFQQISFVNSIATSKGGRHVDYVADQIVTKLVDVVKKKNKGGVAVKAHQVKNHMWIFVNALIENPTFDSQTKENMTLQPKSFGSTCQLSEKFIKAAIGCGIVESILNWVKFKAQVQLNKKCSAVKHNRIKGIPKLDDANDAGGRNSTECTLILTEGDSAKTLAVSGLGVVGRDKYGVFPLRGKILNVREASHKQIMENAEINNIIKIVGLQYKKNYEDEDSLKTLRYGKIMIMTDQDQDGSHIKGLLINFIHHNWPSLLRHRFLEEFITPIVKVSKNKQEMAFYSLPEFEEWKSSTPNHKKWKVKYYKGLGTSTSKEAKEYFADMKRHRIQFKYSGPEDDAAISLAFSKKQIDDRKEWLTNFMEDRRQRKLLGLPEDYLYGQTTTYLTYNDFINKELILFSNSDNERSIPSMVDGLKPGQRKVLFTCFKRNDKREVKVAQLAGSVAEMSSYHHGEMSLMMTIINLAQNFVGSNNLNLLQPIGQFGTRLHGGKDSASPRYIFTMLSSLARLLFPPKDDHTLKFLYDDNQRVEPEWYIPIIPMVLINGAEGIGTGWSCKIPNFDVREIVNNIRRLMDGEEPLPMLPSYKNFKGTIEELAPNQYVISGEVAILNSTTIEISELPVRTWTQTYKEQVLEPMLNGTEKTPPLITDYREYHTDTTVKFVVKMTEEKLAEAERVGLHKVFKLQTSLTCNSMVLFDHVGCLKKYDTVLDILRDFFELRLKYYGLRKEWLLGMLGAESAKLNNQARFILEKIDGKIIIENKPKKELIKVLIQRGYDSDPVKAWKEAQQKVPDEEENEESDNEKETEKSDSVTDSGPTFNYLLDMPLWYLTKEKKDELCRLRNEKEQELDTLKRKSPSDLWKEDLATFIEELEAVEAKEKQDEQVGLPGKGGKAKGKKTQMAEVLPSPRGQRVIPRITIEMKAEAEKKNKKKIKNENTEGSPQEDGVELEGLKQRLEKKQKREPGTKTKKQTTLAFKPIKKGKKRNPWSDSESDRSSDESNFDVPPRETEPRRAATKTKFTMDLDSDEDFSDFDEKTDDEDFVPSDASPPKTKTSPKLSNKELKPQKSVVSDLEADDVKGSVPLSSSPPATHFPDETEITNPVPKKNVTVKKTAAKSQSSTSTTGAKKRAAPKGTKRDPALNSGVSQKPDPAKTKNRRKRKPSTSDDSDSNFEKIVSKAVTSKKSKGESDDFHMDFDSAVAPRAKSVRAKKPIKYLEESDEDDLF

## Cl.NC1CCN(c2c(F)cc3c(=O)c(C(=O)O)cn4c3c2Oc2c-4ccc3ccccc23)C1 (stereo not drawn) [Compound 2b, 1-(3-Aminopyrrolidin-1-yl)-2-fluoro-4-oxo-4H-pyrido[3,2,1-k,l]-benzo[f]-phenoxazine-5-carboxylic Acid]
Human topoisomerase II
  IC50: 240 nM
Supercoiled pHOT1 DNA
  DNA unwinding concn: 3 µM
B16 melanoma
  IC50: 20 ± 2 nM
DU-145 prostate
  IC50: 30 ± 10 nM
H226 non-small-cell lung
  IC50: 13 ± 5 nM
HT-29 colon
  IC50: 26 ± 1 nM
MDA-231 breast
  IC50: 5 ± 1 nM
Raji lymphoma
  IC50: 34 ± 2 nM
[1]; 100 μM
  primer extension by Taq DNA polymerase: completely inhibited
[1]; increasing concentration
  polymerase pausing at the G-quadruplex site: enhanced pausing
Human telomerase
  telomerase inhibition (qualitative): dual-acting; also recorded: inhibit telomerase
Sea urchin embryo system
  chromosomal aberrations: cause chromosomal aberrations

## CCn1cc(C(=O)O)c(=O)c2cc(F)c(N3CCNCC3)cc21 [Norfloxacin]
[2]
  potency relative to III (fold less potent): at least 1000 fold
Topo II-DNA complex [3]
  psorospermin alkylation at site B (competition): no competition

## COc1cc2c(c3oc4c(O)cccc4c(=O)c13)C[C@H]([C@@]1(C)CO1)O2 [Psorospermin]
Topo II-DNA complex [4]
  enhancement of reactivity with guanine at +4′ position of site B in the presence of topo II: more than 40 fold
